Experiments:
[1] = molecular target: T1, BAR (FXR, NR1H4) (Homo sapiens, UniProt Q96RI1); settings: gene-selective BAR modulator; cited from earlier work
T1 sequence (Q96RI1 1-486): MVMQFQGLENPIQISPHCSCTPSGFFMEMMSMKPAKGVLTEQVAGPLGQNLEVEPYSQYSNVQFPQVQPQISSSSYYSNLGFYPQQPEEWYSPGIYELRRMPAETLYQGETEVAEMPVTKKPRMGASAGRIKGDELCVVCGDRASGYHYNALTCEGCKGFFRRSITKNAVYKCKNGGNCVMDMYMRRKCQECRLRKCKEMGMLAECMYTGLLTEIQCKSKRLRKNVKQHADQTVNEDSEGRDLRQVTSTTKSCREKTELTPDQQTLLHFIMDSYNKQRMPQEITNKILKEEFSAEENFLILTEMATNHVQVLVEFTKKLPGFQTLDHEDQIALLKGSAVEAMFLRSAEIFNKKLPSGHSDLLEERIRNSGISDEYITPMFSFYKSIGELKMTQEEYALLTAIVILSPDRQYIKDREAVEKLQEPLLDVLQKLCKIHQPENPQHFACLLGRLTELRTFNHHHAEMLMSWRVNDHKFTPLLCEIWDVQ

[2] = tested on: IBABP; experiment: Regulation of expression of IBABP in Caco-2 cells, quantitative RT-PCR; assay type: cell-based, human; settings: 100 nM, 24 h
Procedure: (§1) The expression of IBABP-L and IBABP was measured by quantitative RT-PCR. The mRNA copy number of each variant is normalized to the expression the housekeeping gene ARPP0. Values in the figure represent the average of three experiments with each replicate performed in duplicate.
(§2) To determine the relative expression levels of IBABP-L and IBABP, a two-step quantitative RT-PCR procedure was used. In the first step, complementary DNA (cDNA) was synthesized from total RNA. […] In the second step, quantitative PCR (QPCR) was carried out on a Mx 3000P Real-Time PCR System (Stratagene, La Jolla, Calif.) using a solution containing diluted cDNA (1:20; 2.0 μl), 1×SYBR Green PCR Master Mix (Applied Biosystems, Foster City, Calif.), and primers for IBABP-L, IBABP, or ARPP0 (0.25 μM). […]
(§3) Regulation of expression of the IBABP variants in Caco-2 cells. […] Cells were harvested, cellular RNA was isolated using the RNeasy Mini Kit (Qiagen) according to manufacturer instruction, and expression of IBABP variants was determined by QPCR as described above.
(§4) Bile acids differentially regulate the variants of IBABP. […] Caco-2 cells were treated with either chenodeoxycholic acid (CDCA), deoxycholic acid (DCA), or 9cRA, and the relative expression of transcripts encoding IBABP-L and IBABP was measured by quantitative RT-PCR (FIG. 10).

[3] = tested on: IBABP-L; experiment: Regulation of expression of IBABP-L in Caco-2 cells, quantitative RT-PCR; assay type: cell-based, human; settings: 24 h
Procedure: as §1, §2, §3, §4

[4] = tested on: IBABP-L promoter; experiment: IBABP-L promoter luciferase reporter in HCT 116 cells; assay type: cell-based, human; settings: 25 ng/ml for 5 hr, HCT116 cells
Procedure: To verify that NF-κB binds the response element and drives the expression of IBABP-L, a number of studies were performed with deletions and mutations of the promoter linked to a reporter gene (PGL3-Basic Luciferase), as shown in FIG. 18. These studies were performed in HCT 116 colon cancer cells, which have elevated expression of IBABP-L. The region containing the putative NF-κB binding motif (−1563/+78) was amplified from human genomic DNA by PCR. Deletion constructs of this promoter were made through PCR or restriction enzyme digestion. The G C mutation was made through site-directed mutagenesis. The wild type and modified promoters were inserted into PGL3 vector containing firefly Luciferase (Luc) reporter (Promega). Reporter vectors were constructed to either delete the entire putative NF-κB binding motif, or mutate the most conserved “G” to “C” within this motif. The wild type promoter and modified reporters were introduced into HCT 116 cells, and luciferase activity was analyzed at 24 hr.
As shown in FIGS. 19A-C, a functional analysis of the IBABP-L promoter was performed. […] The luciferase activity was measured in 24 h and normalized to the Renilla signal in the absence of the IBABP-L promoter. […] Luciferase activity was measured in 24 hr and normalized. pRL-CMV was included in every transfection. […]

**Q.** Which “activity on CYP7A1” value [1] does the source give for `CCCCCCOc1c(\C(C)=C/C=C/C(C)=C/C(=O)O)cc(C(C)C)cc1C(C)C` [AGN34] here?
**A.** The value was “agonist”.

**Q.** And the “activity on IBABP” value [1]?
**A.** Its value is “antagonist”.

**Q.** And the “activity on SHP” value [1]?
**A.** The value was “neutral”.

**Q.** What does the source list for `CC1=C(/C=C/C(C)=C\C=C\C(C)=C\C(=O)O)C(C)(C)CCC1` [9cRA, 9-cis-retinoic acid]?
**A.** effect on expression of IBABP [2]: up-regulated; effect on expression of IBABP-L ([3]; 100 nM): without effect

**Q.** What does the source list for tumor necrosis factor α [TNFα]?
**A.** transcription activity of the wild type IBABP-L promoter [4]: increased; transcription activity of the mutated IBABP-L promoter ([4]; G to C mutation in NF-κB motif): not the mutated promoter

**Q.** For `C[C@H](CCC(=O)O)[C@H]1CC[C@H]2[C@@H]3[C@H](O)C[C@@H]4C[C@H](O)CC[C@]4(C)[C@H]3CC[C@]12C` [CDCA, chenodeoxycholic acid], which “effect on expression of IBABP-L” value ([3]; 100 μM, normalized to ARPP0) is on record?
**A.** The value was “without effect”.
